Assay [1] addresses T1, catalytic domain of human Bub1 (amino acids 704-1085) (Homo sapiens, UniProt O43683).
T1 construct: catalytic domain of human Bub1 (amino acids 704-1085); His6 (N); made in house; host or cells: Hi5 insect cells
Kind of assay: Bub1 kinase assay (TR-FRET). Format: biochemical. How it is done:
To this end, 100-fold concentrated compound solutions (in DMSO) were previously prepared by serial dilution (1:3.4) of 2 mM stocks in a clear low volume 384-well source microtiter plate (Greiner Bio-One, Frickenhausen, Germany), from which 50 nL of compounds were transferred into a black low volume test microtiter plate from the same supplier. […] The resulting mixture (5 μL final volume) was incubated at 22° C. during 60 min., and the reaction was stopped by the addition of 5 μL of an aqueous EDTA-solution (50 mM EDTA, in 100 mM HEPES pH 7.5 and 0.2% (w/v) bovine serum albumin) which also contained the TR-FRET detection reagents (0.2 μM streptavidin-XL665 [Cisbio Bioassays, Codolet, France] and 1 nM anti-phoshoSerine antibody [Merck Millipore, cat. #35-001] and 0.4 nM LANCE EU-W1024 labeled anti-mouse IgG antibody [Perkin-Elmer, product no. AD0077, alternatively a Terbium-cryptate-labeled anti-mouse IgG antibody from Cisbio Bioassays can be used]). The stopped reaction mixture was further incubated 1 h at 22° C. in order to allow the formation of complexes between peptides and detection reagents. Subsequently, the amount of product was evaluated by measurement of the resonance energy transfer from the Eu-chelate-antibody complex recognizing the Phosphoserine residue to the streptavidin-XL665 bound to the biotin moiety of the peptide.

The subject of the next assay is B16F10 cell line. Kind of assay: Proliferation assay (B16F10 cell line). Format: cell-based. As to conditions: Mus musculus, B16-F10, 96 h, read-out: Biological Assay 2: Proliferation assay (B16F10 cell line) median IC50. How it is done: (§1) Cultivated tumor cells (cells were ordered from ATCC, except HeLa-MaTu and HeLa-MaTu-ADR, which were ordered from EPO-GmbH, Berlin) were plated at a density of 1000 to 5000 cells/well, depending on the growth rate of the respective cell line, in a 96-well multititer plate in 200 μL of their respective growth medium supplemented 10% fetal calf serum. After 24 hours, the cells of one plate (zero-point plate) were stained with crystal violet (see below), while the medium of the other plates was replaced by fresh culture medium (200 μL), to which the test substances were added in various concentrations (0 μM, as well as in the range of 0.001-10 μM; the final concentration of the solvent dimethyl sulfoxide was 0.5%). The cells were incubated for 4 days in the presence of test substances. Cell proliferation was determined by staining the cells with crystal violet: the cells were fixed by adding 20 μL/measuring point of an 11% glutaric aldehyde solution for 15 minutes at room temperature. After three washing cycles of the fixed cells with water, the plates were dried at room temperature. The cells were stained by adding 100 μL/measuring point of a 0.1% crystal violet solution (pH 3.0). After three washing cycles of the stained cells with water, the plates were dried at room temperature. The dye was dissolved by adding 100 μl/measuring point of a 10% acetic acid solution. Absorbtion was determined by photometry at a wavelength of 595 nm. The change of cell number, in percent, was calculated by normalization of the measured values to the absorbtion values of the zero-point plate (=0%) and the absorbtion of the untreated (0 μm) cells (=100%). The IC50 values were determined by means of a 4 parameter fit.

The next assay concerns NCl-H460 cell line. Put plainly: Proliferation assay (NCI-H460 cell line). Format: cell-based. To be noted: Homo sapiens, NCI-H460, 96 h, read-out: Biological Assay 2: Proliferation assay (NCl-H460 cell line) median IC50. How it is done:
as §1

The subject of the next assay is HeLa-MaTu-ADR cell line. Put plainly: Proliferation assay (HeLa-MaTu-ADR cell line). Format: cell-based. As to conditions: 96 h, read-out: Biological Assay 2: Proliferation assay (HeLa-MaTu-ADR cell line) median IC50. The method, then: as §1
The test system of a further assay is HeLa cell line. Put plainly: Proliferation assay (HeLa cell line). Format: cell-based. To be noted: Homo sapiens, 96 h, read-out: Biological Assay 2: Proliferation assay (HeLa cell line) median IC50. How it is done:
as §1

The test system of another assay is DU145 cell line. Put plainly: Proliferation assay (DU145 cell line). Format: cell-based. As to conditions: Homo sapiens, DU-145, 96 h, read-out: Biological Assay 2: Proliferation assay (DU145 cell line) median IC50. The method, then: as §1
The next assay deals with Caco2 cell line. Kind of assay: Proliferation assay (Caco2 cell line). Format: cell-based. As to conditions: Homo sapiens, Caco-2, 96 h, read-out: Biological Assay 2: Proliferation assay (Caco2 cell line) median IC50. How it is done: as §1
Where [2] appears, read: B16F10, 4 days incubation, crystal violet staining.
[3] abbreviates: NCl-H460, 4 days incubation, crystal violet staining.
Where [4] appears, read: HeLa-MaTu-ADR, 4 days incubation, crystal violet staining.
Setting [5] is: 4 days incubation, crystal violet staining.
Where [6] appears, read: DU145, 4 days incubation, crystal violet staining.
Where [7] appears, read: Caco2, 4 days incubation, crystal violet staining.
The mark [8] stands for this setting: 10 μM ATP, 1 μM peptide substrate, TR-FRET, read-out: Biological Assay 1: Bub1 kinase assay median IC50.

The structures appear in SMILES notation. Where two headings read alike, the source gives them in different places.

This note sets out measurements from patent US20160145267A1, “HETEROARYL SUBSTITUTED PYRAZOLES” (BAYER PHARMA AKTIENGESELLSCHAFT, priority 2013, published 2016).

T1 sequence (O43683 704-1085): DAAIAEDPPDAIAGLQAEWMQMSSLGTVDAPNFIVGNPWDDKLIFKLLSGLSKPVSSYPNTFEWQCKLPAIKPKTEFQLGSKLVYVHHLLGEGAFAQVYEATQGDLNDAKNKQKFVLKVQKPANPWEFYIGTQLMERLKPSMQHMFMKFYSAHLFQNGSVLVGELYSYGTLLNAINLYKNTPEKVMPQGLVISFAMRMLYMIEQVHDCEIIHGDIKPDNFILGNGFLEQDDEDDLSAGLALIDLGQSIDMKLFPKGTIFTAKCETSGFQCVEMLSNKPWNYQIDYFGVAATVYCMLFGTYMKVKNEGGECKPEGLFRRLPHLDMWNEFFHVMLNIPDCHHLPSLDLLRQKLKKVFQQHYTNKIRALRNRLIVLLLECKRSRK

As for `CCOc1cc(F)c(Cn2nc(-c3nc(Nc4ccncc4)c(N4CCOCC4)c(Nc4ccncc4)n3)c(C)c2C2CC2)c(F)c1` [Example 2-2-6, 2-[5-cyclopropyl-1-(4-ethoxy-2,6-difluorobenzyl)-4-methyl-1H-pyrazol-3-yl]-5-(morpholin-4-yl)-N,N′-di(pyridin-4-yl)pyrimidine-4,6-diamine], the IC50 is 220 nM in assay [1]; 990 nM with B16F10 cell line (setting [2]); 1100 nM in the assay with NCl-H460 cell line (setting [3]); 820 nM in the assay on HeLa-MaTu-ADR cell line (setting [4]); 7000 nM with HeLa cell line (setting [5]); 1900 nM in the assay on DU145 cell line (setting [6]). The IC50 with Caco2 cell line (setting [7]) was 2600 nM.
For the compound `CCNC(=O)Nc1cc(Nc2ccncc2)nc(-c2nn(Cc3c(F)cc(OCC)cc3F)c(C3CC3)c2C)n1` [Example 2-1-10, 1-{2-[5-cyclopropyl-1-(4-ethoxy-2,6-difluorobenzyl)-4-methyl-1H-pyrazol-3-yl]-6-(pyridin-4-ylamino)pyrimidin-4-yl}-3-ethylurea], the IC50 came to 48 nM in assay [1] (setting [8]); 1200 nM with B16F10 cell line; 1500 nM in the assay on NCl-H460 cell line; 1100 nM with HeLa-MaTu-ADR cell line; 1700 nM with HeLa cell line; 2800 nM in the assay with DU145 cell line. Moreover, the IC50 in the assay with Caco2 cell line stood at 1400 nM.
Regarding `CCOc1cc(F)c(Cn2nc(-c3nc(Nc4ccncn4)nc(Nc4ccncn4)n3)c(C)c2C2CC2)c(F)c1` [Example 2-2-9, 6-[5-cyclopropyl-1-(4-ethoxy-2,6-difluorobenzyl)-4-methyl-1H-pyrazol-3-yl]-N,N′-di(pyrimidin-4-yl)-1,3,5-triazine-2,4-diamine], the IC50 in assay [1] was determined as 1700 nM; in the assay on B16F10 cell line (setting [2]), 8800 nM; in the assay on NCl-H460 cell line (setting [3]), 9900 nM; in the assay with HeLa-MaTu-ADR cell line (setting [4]), 10000 nM; in the assay on HeLa cell line, 1700 nM; with DU145 cell line (setting [6]), 3200 nM. Moreover, in the assay on Caco2 cell line (setting [7]), the IC50 came out at 3500 nM.
Turning to `CCOc1cc(F)c(Cn2nc(-c3nc(Nc4ccncn4)cc(Nc4ccncn4)n3)c(C)c2C2CC2)c(F)c1` [Example 2-2-3, 2-[5-cyclopropyl-1-(4-ethoxy-2,6-difluorobenzyl)-4-methyl-1H-pyrazol-3-yl]-N,N′-di(pyrimidin-4-yl)pyrimidine-4,6-diamine], the IC50 in assay [1] (setting [8]) amounted to 20 nM; with B16F10 cell line, 500 nM; in the assay with NCl-H460 cell line it was 1600 nM; with HeLa-MaTu-ADR cell line, 700 nM; with HeLa cell line, 560 nM; in the assay on DU145 cell line it was 2100 nM. Besides, the IC50 with Caco2 cell line was found to be 2600 nM.
Consider `CCOc1cc(F)c(Cn2nc(-c3nc(N)nc(Nc4ccncc4)n3)c(C)c2C2CC2)c(F)c1` [Example 2-1-8, 6-[5-cyclopropyl-1-(4-ethoxy-2,6-difluorobenzyl)-4-methyl-1H-pyrazol-3-yl]-N-(pyridin-4-yl)-1,3,5-triazine-2,4-diamine], for which the results for the IC50 (in assay [1]; in the assay on HeLa cell line (setting [5])) were 7.1 nM and 3800 nM, respectively.
Turning to `CCOc1cc(F)c(Cn2nc(-c3nc(Nc4ccnnc4)cc(Nc4ccnnc4)n3)c(C)c2C2CC2)c(F)c1` [Example 2-2-10, 2-[5-cyclopropyl-1-(4-ethoxy-2,6-difluorobenzyl)-4-methyl-1H-pyrazol-3-yl]-N,N′-di(pyridazin-4-yl)pyrimidine-4,6-diamine], the IC50 worked out at 1000 nM in assay [1] and 10000 nM in the assay with HeLa cell line (setting [5]).
With `CCOc1cc(F)c(Cn2nc(-c3nc(N)c(OC)c(Nc4ccncn4)n3)c(C)c2C2CC2)c(F)c1` [Example 2-1-5, 2-[5-cyclopropyl-1-(4-ethoxy-2,6-difluorobenzyl)-4-methyl-1H-pyrazol-3-yl]-5-methoxy-N-(pyrimidin-4-yl)pyrimidine-4,6-diamine], the IC50 in assay [1] (setting [8]) was determined as 5.3 nM; in the assay on B16F10 cell line, 1800 nM; with NCl-H460 cell line, 7400 nM; in the assay on HeLa-MaTu-ADR cell line, 3500 nM; with HeLa cell line it was 5100 nM; in the assay with DU145 cell line, 6900 nM. Also, in the assay on Caco2 cell line, the IC50 is 1900 nM.
For `CCOc1cc(F)c(Cn2nc(-c3nc(N)cc(Nc4ccncn4)n3)c(C)c2C2CC2)c(F)c1` [Example 2-1-3, 2-[5-cyclopropyl-1-(4-ethoxy-2,6-difluorobenzyl)-4-methyl-1H-pyrazol-3-yl]-N-(pyrimidin-4-yl)pyrimidine-4,6-diamine], the IC50 is 6.3 nM in assay [1] (setting [8]) and 3100 nM with HeLa cell line.
Take `CCOc1cc(F)c(Cn2nc(-c3nc(Nc4ccncn4)c(OCCOC)c(Nc4ccncn4)n3)c(C)c2C2CC2)c(F)c1` [Example 2-2-13, 2-[5-cyclopropyl-1-(4-ethoxy-2,6-difluorobenzyl)-4-methyl-1H-pyrazol-3-yl]-5-(2-methoxyethoxy)-N,N′-di(pyrimidin-4-yl)pyrimidine-4,6-diamine]: the IC50 in assay [1] turned out to be 120 nM; with HeLa cell line (setting [5]), 10000 nM.
Turning to `CCOc1cc(F)c(Cn2nc(-c3nc(Nc4ccncc4)c(OCCOC)c(Nc4ccncc4)n3)c(C)c2C2CC2)c(F)c1` [Example 2-2-12, 2-[5-cyclopropyl-1-(4-ethoxy-2,6-difluorobenzyl)-4-methyl-1H-pyrazol-3-yl]-5-(2-methoxyethoxy)-N,N′-di(pyridin-4-yl)pyrimidine-4,6-diamine], the IC50 in assay [1] (setting [8]) came to 480 nM; in the assay on B16F10 cell line, 400 nM; with NCl-H460 cell line, 1200 nM; in the assay on HeLa-MaTu-ADR cell line it was 730 nM; in the assay on HeLa cell line it was 970 nM; with DU145 cell line it was 1700 nM. Further, the IC50 with Caco2 cell line is 1100 nM.
For `CCOc1cc(F)c(Cn2nc(-c3nc(NC(=O)NC4CCCCC4)c(OC)c(Nc4ccncn4)n3)c(C)c2C2CC2)c(F)c1` [Example 2-1-17, 1-cyclohexyl-3-{2-[5-cyclopropyl-1-(4-ethoxy-2,6-difluorobenzyl)-4-methyl-1H-pyrazol-3-yl]-5-methoxy-6-(pyrimidin-4-ylamino)pyrimidin-4-yl}urea], the IC50 in assay [1] (setting [8]) stood at 1400 nM; in the assay on HeLa cell line it was 5500 nM.
Taken in the same sequence, the figures for `CCOc1cc(F)c(Cn2nc(-c3nc(N)c(N4CCOCC4)c(Nc4ccncn4)n3)c(C)c2C2CC2)c(F)c1` [Example 2-1-7, 2-[5-cyclopropyl-1-(4-ethoxy-2,6-difluorobenzyl)-4-methyl-1H-pyrazol-3-yl]-5-(morpholin-4-yl)-N-(pyrimidin-4-yl)pyrimidine-4,6-diamine] were 9.8 nM and 5300 nM.
